Peptide text beside a SMILES is read from it. * marks the point of attachment. 5FAM = O=C1OC2(c3ccc(O)cc3Oc3cc(O)ccc32)c2ccc(C(=O)*)cc21; Ahx = NCCCCCC(=O)O

This data set relates to orthotopic WT-GBM-bearing nude mice. As to the kind of experiment: Biodistribution of monomeric FAM-labeled peptides in WT-GBM mice (anti-FAM DAB immunohistochemistry). Format: in vivo. Conditions: 200 µg i.v., 1 h circulation, perfused, anti-FAM DAB staining, qualitative, n = 3, Fig. 6d. From the text:
Whereas polyvalent targeting systems, such as bacteriophages and AgNPs used in previous sections, exploit multivalent interactions to enhance specificity and binding efficiency, monovalent targeting systems rely on single ligand-receptor interactions for targeted drug delivery. The choice between these two approaches depends on affinity of the targeting ligand and the pharmacokinetic properties of the therapeutic agent. We next studied in vivo biodistribution of monomeric FAM-labeled SKLG, PL3, and scrambled PL3 control (scrPL3) peptides in WT-GBM tumor-bearing mice. The mice were dosed with FAM-labeled peptides followed by perfusion, tissue collection, sectioning, and detection of the peptides using immunohistochemistry with anti-FAM antibodies.
Fig. 6 Biodistribution of monomeric FAM-labeled peptides in WT-GBM mice. Orthotopic GBM-bearing nude mice were i.v. injected with FAM-labeled scrambled PL3 control (scrPL3), PL3 or SKLG peptides. After 1 h of circulation the mice were anesthetized and perfused. Organs were harvested, sectioned, and parallel sections were immunostained with hematoxylin & eosin (H&E) staining or anti-FAM 3, 3'-diaminobenzidine (DAB) staining. (a) H&E of WT-GBM tumor-bearing brain tissue sections. (b) DAB staining of WT-GBM tumor region in the brain. (c) H&E staining of lung tissue sections. (d) DAB staining of lung tissue sections. […]

For `CC(C)C[C@H](NC(=O)[C@H](CCCNC(=N)N)NC(=O)CNC(=O)[C@H](CCCNC(=N)N)NC(=O)CNC(=O)[C@H](C)NC(=O)[C@H](CCCNC(=N)N)NC(=O)CCCCCNC(=O)c1ccc2c(c1)C(=O)OC21c2ccc(O)cc2Oc2cc(O)ccc21)C(=O)N[C@H](C(=O)O)C(C)C` [scrPL3] ({5FAM-Ahx}-RAGRGRLV-OH), the “accumulation of FAM-labeled peptide in pulmonary tissue” value is “only a background signal”.

For the origin of these results see publication PMC11384632, “Protease-activated CendR peptides targeting tenascin-C: mitigating off-target tissue accumulation” (Drug Delivery and Translational Research, 2024).
